One series deals with T1, SETD2 (Homo sapiens, UniProt Q9BYW2).
T1 construct: purchased Reaction Biology (Malvern, PA, USA), contract assay
The series can be described thus: Methyltransferase selectivity panel (MT HotSpot radioisotope assay), SETD2. The class given is biochemical. Conditions: 10 μM eltrombopag. How it is done:
The selectivity profile of eltrombopag was investigated by testing the level of inhibition in a methyltransferase panel. The inhibition of 7 […] methyltransferase was tested at Reaction Biology (Malvern, PA, USA) using a gold standard radioisotope-based MT assay (MT HotSpot^TM) with 10 μM of eltrombopag in duplicate.

The next series concerns the target T2, METTL3 (Homo sapiens, UniProt Q86U44).
T2 construct: 10x His (thrombin-cleavable); made in house; host or cells: insect cells, baculovirus (pVL1393)
The series is described as follows: Bioluminescence enzyme assay, single form of METTL3. Conditions: 1 μM METTL3, 1 μM SAM, 500 nM RNA, 5 h; read-out: IC50, single subunit enzyme form of METTL3. The class given is biochemical. As for the experimental part:
(§1) An enzymatic bioluminescence assay was established to identify the METTL3-14 inhibitor through screening. […] METTL3-14 activity was assessed by measuring the luminescence using a Victor multilabel reader (PerkinElmer, Waltham, MA, USA). The IC50 values were calculated by a nonlinear regression analysis using OriginPro 9.1 software (OriginLab).
(§2) To confirm the mechanism of action of eltrombopag in the METTL3-14 complex, 30 nM METTL3-14 and serially diluted eltrombopag were reacted with various concentrations of SAM or RNA substrate and saturating concentrations of the other substrate (3 μM SAM or 2 μM RNA substrate) for 20 min. To evaluate the inhibitory activity in a single form of METTL3 and METTL14, 1 μM of METTL3 and 300 nM of METTL14 were incubated with 1 μM of SAM, 500 nM of RNA substrates, and serially diluted eltrombopag for 5 h. To measure the inhibitory activity in the truncated form of the METTL3-14 complex, 1 μM of the truncated METTL3-14 complex was reacted with 1 μM of SAM, 500 nM of RNA substrates, and serially diluted eltrombopag for 5 h.

The target of series [1] is T3, truncated METTL3-14 complex (Homo sapiens, UniProt Q86U44).
T3 construct: MTase domain of human METTL3 (residues 369 to 580); METTL14 (residues 106 to 396); 10x His (thrombin-cleavable) (cleaved yes); made in house; host or cells: Trichoplusia ni (Hi5) cells co-infected with two baculoviruses
The series can be described thus: Bioluminescence enzyme assay, truncated form of METTL3-14 (methyltransferase domain). The class given is biochemical. How it is done:
as §1, §2

Another series relates to MV4-11 cells. The series can be described thus: Anti-proliferative assay (EZ-cytox), MV4-11. The class given is cell-based. Particulars: Homo sapiens, MV4-11, 72 h. As for the experimental part: The MOLM-13, MOLM-14, HL60, MV4-11, and THP-1 cells were seeded in white 96-well clear bottomed plates with 100 μL of medium (5000 cells/well). The plated cells were treated with serially diluted compounds and incubated for 72 h at 37 °C. After incubation, 10 μL of EZ-cytox kit reagent from the EZ-cytox cell viability assay kit (DaeiLab, Seoul, Korea) was added to each well and then incubated for 3 h at 37 °C. The absorbance of metabolically active cells was measured at a wavelength of 450 nm using a Victor multilabel reader (PerkinElmer). The GI50 values were calculated by nonlinear regression analysis using OriginPro 9.1 software (OriginLab).

On the set-up of series [2]: method as in PMID 34225039. Conditions: cited from earlier work.

T3 sequence (Q86U44 369-580): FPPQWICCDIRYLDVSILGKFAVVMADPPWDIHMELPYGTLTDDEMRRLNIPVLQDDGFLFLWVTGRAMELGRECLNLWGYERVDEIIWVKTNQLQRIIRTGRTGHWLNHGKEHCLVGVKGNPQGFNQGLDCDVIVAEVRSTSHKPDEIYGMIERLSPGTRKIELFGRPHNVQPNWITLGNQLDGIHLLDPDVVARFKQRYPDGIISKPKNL
T3 sequence (Q9HCE5 106-396 partner limits assumed): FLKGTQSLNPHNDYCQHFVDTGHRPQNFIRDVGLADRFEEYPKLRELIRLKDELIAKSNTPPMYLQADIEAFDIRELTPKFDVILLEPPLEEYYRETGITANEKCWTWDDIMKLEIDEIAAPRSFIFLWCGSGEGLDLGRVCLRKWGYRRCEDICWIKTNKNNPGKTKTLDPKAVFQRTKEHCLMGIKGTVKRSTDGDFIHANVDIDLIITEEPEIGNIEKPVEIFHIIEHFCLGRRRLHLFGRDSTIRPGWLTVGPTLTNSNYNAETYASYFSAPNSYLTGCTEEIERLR
T1 sequence (Q9BYW2 whole entry): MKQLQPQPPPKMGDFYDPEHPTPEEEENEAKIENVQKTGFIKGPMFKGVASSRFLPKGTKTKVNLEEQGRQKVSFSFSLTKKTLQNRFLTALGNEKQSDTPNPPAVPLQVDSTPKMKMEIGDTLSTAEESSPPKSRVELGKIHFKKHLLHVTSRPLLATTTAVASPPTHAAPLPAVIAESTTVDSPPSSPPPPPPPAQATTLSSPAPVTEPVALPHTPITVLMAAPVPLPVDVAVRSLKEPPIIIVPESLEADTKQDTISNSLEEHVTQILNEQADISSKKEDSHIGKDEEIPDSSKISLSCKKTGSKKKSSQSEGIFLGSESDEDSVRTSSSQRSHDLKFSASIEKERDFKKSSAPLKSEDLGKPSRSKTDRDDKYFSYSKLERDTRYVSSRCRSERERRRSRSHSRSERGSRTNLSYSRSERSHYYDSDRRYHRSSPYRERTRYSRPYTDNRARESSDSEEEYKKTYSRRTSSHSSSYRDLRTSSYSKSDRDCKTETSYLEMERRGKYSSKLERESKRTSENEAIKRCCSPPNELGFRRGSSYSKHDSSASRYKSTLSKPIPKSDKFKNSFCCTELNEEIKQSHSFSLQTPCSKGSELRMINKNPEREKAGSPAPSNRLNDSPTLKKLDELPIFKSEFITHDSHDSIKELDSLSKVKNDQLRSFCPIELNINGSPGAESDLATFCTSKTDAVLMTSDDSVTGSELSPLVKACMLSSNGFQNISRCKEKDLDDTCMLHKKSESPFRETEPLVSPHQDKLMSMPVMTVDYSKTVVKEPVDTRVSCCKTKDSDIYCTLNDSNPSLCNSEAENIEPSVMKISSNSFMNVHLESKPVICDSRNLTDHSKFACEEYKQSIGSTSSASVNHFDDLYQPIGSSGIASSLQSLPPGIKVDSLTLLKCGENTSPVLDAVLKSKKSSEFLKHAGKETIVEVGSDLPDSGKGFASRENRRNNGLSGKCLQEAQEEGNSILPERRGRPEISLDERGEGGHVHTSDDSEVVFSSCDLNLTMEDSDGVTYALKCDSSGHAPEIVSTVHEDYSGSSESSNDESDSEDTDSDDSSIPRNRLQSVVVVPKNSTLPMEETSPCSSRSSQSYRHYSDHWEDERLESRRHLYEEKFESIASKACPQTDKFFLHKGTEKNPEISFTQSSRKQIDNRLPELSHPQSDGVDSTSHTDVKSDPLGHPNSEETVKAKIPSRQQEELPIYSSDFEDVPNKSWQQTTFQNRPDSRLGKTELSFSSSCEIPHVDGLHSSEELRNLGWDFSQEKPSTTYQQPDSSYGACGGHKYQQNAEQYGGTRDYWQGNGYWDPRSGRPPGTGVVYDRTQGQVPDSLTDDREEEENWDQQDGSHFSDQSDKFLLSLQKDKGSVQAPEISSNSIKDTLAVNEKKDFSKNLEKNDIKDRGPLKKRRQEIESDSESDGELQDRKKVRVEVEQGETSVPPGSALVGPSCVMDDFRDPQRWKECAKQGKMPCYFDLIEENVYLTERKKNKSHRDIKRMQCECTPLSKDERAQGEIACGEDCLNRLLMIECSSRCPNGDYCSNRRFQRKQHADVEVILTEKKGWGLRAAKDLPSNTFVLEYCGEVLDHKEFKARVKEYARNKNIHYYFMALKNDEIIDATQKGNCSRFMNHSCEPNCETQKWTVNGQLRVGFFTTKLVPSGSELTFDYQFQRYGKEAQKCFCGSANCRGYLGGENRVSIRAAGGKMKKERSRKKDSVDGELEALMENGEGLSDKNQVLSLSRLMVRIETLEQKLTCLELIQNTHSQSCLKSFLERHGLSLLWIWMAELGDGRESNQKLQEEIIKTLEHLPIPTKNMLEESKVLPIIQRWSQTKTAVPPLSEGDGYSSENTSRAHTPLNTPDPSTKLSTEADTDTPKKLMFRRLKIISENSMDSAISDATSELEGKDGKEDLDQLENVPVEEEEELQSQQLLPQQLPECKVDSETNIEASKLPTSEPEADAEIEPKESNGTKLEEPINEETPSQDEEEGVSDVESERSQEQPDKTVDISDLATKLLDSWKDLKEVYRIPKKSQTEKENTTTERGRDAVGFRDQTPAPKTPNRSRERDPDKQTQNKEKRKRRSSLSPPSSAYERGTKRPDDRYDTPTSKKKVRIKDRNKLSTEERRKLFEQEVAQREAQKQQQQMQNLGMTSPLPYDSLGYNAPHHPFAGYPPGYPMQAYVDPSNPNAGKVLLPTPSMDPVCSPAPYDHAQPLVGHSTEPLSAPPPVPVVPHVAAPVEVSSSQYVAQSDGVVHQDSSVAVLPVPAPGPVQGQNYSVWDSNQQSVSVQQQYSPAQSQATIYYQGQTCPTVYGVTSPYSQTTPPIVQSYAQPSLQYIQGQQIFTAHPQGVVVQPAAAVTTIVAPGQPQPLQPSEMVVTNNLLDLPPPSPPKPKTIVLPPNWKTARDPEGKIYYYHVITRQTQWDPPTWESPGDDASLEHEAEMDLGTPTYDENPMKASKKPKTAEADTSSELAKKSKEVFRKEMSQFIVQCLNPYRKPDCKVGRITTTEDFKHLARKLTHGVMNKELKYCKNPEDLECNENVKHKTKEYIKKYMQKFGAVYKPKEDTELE
T2 sequence (Q86U44 whole entry): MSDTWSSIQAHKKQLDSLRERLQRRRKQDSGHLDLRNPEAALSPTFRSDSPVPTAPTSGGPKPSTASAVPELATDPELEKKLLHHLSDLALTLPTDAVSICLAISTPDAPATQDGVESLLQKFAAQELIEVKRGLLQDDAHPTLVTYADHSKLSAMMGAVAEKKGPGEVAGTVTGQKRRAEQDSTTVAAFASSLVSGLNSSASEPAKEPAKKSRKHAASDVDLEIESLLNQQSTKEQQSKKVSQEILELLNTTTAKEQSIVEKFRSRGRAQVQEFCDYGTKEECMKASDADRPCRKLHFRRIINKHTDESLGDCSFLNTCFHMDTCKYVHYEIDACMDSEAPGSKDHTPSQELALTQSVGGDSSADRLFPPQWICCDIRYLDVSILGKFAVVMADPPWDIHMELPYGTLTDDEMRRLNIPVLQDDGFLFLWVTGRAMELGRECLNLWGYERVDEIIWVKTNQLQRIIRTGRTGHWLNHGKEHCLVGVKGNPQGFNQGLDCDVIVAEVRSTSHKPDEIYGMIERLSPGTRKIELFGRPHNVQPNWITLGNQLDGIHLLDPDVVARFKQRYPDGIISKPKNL

Broadly, the remaining activity is the share of the control activity or signal that is left under treatment. A high value points to much activity left. One may read the IC50 as the concentration that gives 50% inhibition. In general, GI50 refers to the concentration at which growth is held to half of that of the control. Compound `CC1=NN(c2ccc(C)c(C)c2)C(=O)/C1=N\Nc1cccc(-c2cccc(C(=O)O)c2)c1O` [Eltrombopag] displayed a remaining activity at 10 µM at SETD2 of 97.3 ± 4.1%. Besides, the IC50 at METTL3 amounted to 7.04 µM; in series [1] (1 μM truncated complex, 1 μM SAM, 500 nM RNA, 5 h), 12 µM. The “fold change of IC50, truncated versus full length METTL3-14” value in series [1] worked out at 3.5 fold. For the same compound, it took 14.3 ± 0.1 µM to inhibit growth in the series on MV4-11 cells by half (GI50). In addition, in series [2], the water solubility entry is recorded as “low”.

These data come from PMC9032718, “Eltrombopag as an Allosteric Inhibitor of the METTL3-14 Complex Affecting the m^6A Methylation of RNA in Acute Myeloid Leukemia Cells” (Pharmaceuticals, 2022).
